Measured values as given in article PMC9863607, “Combined Use of Antimicrobial Peptides with Antiseptics against Multidrug-Resistant Bacteria: Pros and Cons” (Pharmaceutics, 2023).
Read-outs that look alike come from different tables or passages of the source. Peptide text beside a SMILES is read from it.

How the values were obtained:
[1] = tested on: normal human dermal fibroblasts; experiment: MTT test and/or direct cell count by light microscopy; settings: for FECI, toxicity toward fibroblasts: assessed from the ½+½ and ¼+¼ MEC combinations
Excerpt: Potential cytotoxic effects of the test substances and their combinations toward human dermal fibroblasts were observed using a MTT dye [3-(4,5-dimethylthiazol-2-yl)-2,5-diphenyltetrazolium bromide]-based test first proposed by Mosmann. MTT basically functions on the same principle as resazurin: it is reduced in metabolically active cells to the product named formazan, which differs from MTT by its properties. While MTT is yellow, formazan is blue and water-insoluble. Normal human fibroblasts initially obtained from the Pokrovsky Stem Cell Bank (Saint Petersburg, Russia) were cultured at 37 °C and 5% CO2 in DMEM medium supplemented with 10% fetal bovine serum, glutamine, and Pen-Strep. The day before, experiment cells were detached from the culture flasks using Trypsin-Versene reagent, collected into a sterile 15 mL tube, centrifuged for 10 min at 300× g to discard the previous medium, and resuspended in serum-, glutamine-, and antibiotic-free DMEM. Cells were counted using a hemocytometer; their concentration was adjusted, and they were distributed at 10,000–15,000 cells per well in 90 µL in a 96-well sterile treated flat-bottom plate and left at 37 °C and 5% CO2 overnight to properly adhere. The following day, their well-being was visually checked using an inverted light microscope, and the wells were supplied with 10 µL of the test substances or their combinations in DMEM in 10 times the final desired concentrations. Experimental samples were made in triplicates. […] At least six repeats of each type of the control samples were made. Test plates were incubated at 37 °C and 5% CO2 overnight, and 10 µL of the 5 mg/mL MTT in PBS were introduced into each well the next morning. After another 4 h of incubation at the same conditions, formed formazan crystals were dissolved by adding 110 µL of isopropanol containing 0.04 M HCl (the latter is used to “switch” phenol red pH indicator in DMEM from red to yellow). Then, each sample was thoroughly mixed by repetitive pipetting, and formazan concentration was spectrophotometrically evaluated measuring OD at 540 nm with subtraction of the background at 690 nm.
We resorted to the direct cell count in case the MTT test was not applicable or required verification of some sort. This idea was borrowed from the crystal violet assay for determining viability of cultured cells and is based on the fact that, once dead, adherent cells detach from the surface. Since we were not aiming to analyze a large number of samples in this manner, we simply skipped the staining step of the crystal violet assay, which is also slightly difficult and brings a risk of detaching cells during washing. We proceeded with the same protocol as for the MTT test down to the step of adding MTT dye. Then, instead, we used an inverted light microscope (magnification ×500) to calculate the number of attached cells in 10 fields of view in each experimental well of interest and compared it with the count for the 100% viability control wells. The exact effect was evaluated as viable cells (%) = mean number of adhered cells in a sample / mean number of adhered cells in 100% viability control × 100%.
While analyzing toxicity toward eukaryotic cells, components were mixed in concentrations of ½ MEC (AMP) + ½ MEC (AS) (that can provide the fractional index = 1, denoting additivity, if found effective) and ¼ MEC (AMP) + ¼ MEC (AS) (that can provide the fractional index = 0.5, denoting synergy, if found effective).
Cytotoxic effects of individual substances and their combinations were also evaluated against cultured normal human dermal fibroblasts. We used MTT tests and/or light microscopy for the direct cell count.

E. coli ML-35p = experiment: Bacterial membrane permeability assay (nitrocefin / ONPG); type: cell-based, Escherichia coli
Excerpt: Monitoring the ability of the test substances or their combinations to affect bacterial membranes and enhance their permeability over time was organized using a method first proposed by Prof. Lehrer’s scientific group. The idea is based on utilizing special markers that cannot spontaneously penetrate bacterial membranes until those are damaged but would be readily processed by the bacteria’s own enzymes into products of different color once they enter. Then, the product can be spectrophotometrically detected, and the dynamics of its accumulation can be associated with the scale and swiftness of the inflicted membrane impairment. The specific bacterial strain E. coli ML-35p was designed for the procedure. It is a descendant of E. coli ML-35, first identified during lac operon studies, deficient in lactopermease but constitutively expressing cytoplasmic β-galactosidase, that was modified with a plasmid vector to additionally provide it with a periplasmic β-lactamase. These modifications create the basis for the mentioned membrane damage detection approach, as there are two specifically placed enzymes, but their lactose/galactose-based substrates cannot enter bacterial cells on their own in the absence of lactopermeases.
Nitrocefin (Calbiochem-Novabiochem, San Diego, CA, USA), which can be converted by β-lactamase into a pink-colored product detectable at 486 nm once it reaches the periplasmic space, was used as a marker of the outer membrane permeability, and ONPG (o-nitrophenyl-β-D-galactoside, Sigma, St. Louis, MO, USA), producing yellow-colored o-nitrophenyl detectable at 420 nm once hydrolyzed by β-galactosidase in the bacterial cytoplasm, was likewise used as an indicator of inner membrane damage.
An overnight culture of E. coli ML-35p grown at 37 °C in 3% Trypticase soy broth (TSB) was washed of the medium twice with 10 mM Na-P buffer (pH 7.4) via a 10 min long centrifugation at 600 g and 4 °C and diluted down in the same buffer to 1 × 10^8 CFU/mL stock concentration based on the optical density (OD) of the suspension at 620 nm (the formula being concentration [CFU/mL] = OD620 × 2.5 × 10^8). The stock was preferably used immediately or kept at 4ᵒC for no more than 1 h. Experiments were carried out in 96-well clear flat-bottom plates. The 100 µL samples containing antimicrobials or their combinations in desired concentrations, 10 mM Na-P buffer (pH 7.4), 100 mM NaCl, 20 μM of nitrocefin or 2.5 mM of ONPG, and bacteria in a final concentration of 2.5 × 10^7 CFU/mL were made in duplicates. Controls included no antimicrobial substances. Bacterial suspension was the last component and was added just before the start of the measurement. OD values at the wavelengths of 420 and 486 nm were collected once per minute for 1–2 h using SpectraMax 250 Microplate Spectrophotometer (Molecular Devices, San Jose, CA, USA); samples were maintained at 37 °C with 5 s of shaking before each read.

[2] = antiseptics and surfactants, serum-free DMEM, overnight, median of 3 independent experiments, prontosan as polyhexanide, etidronic acid primarily by direct cell count
[3] = intact bacteria and bacteria lysed by 4×MIC of PG-1

`CC(O)(P(=O)(O)O)P(=O)(O)O` [Etidronic acid] was tested, and the MECF [1] was “less than 2.5 mg/mL”, the “MECF of cytotoxic action toward normal human dermal fibroblasts” value [1, 2] was under 2500 µg/mL and the “Cytotoxic effect toward human dermal fibroblasts” value ([1]; at 2.5 mg/mL) was “higher than 50%”. The “Interference with ONPG processing by cytoplasmic β-galactosidase” value (E. coli ML-35p; [3]) was “fully blocked the processing of ONPG” and the “Interference with nitrocefin degradation by bacterial β-lactamase” value (E. coli ML-35p; [3]) was “prevents said enzyme from splitting nitrocefin”.
For `[O-][n+]1c(CO)c(CO)[n+]([O-])c2ccccc21` [Dioxydin], the MECF [1] was 0.5 mg/mL, the “MECF of cytotoxic action toward normal human dermal fibroblasts” value [1, 2] was 500 µg/mL and the “Effect on the membranolytic action of AMPs” value (E. coli ML-35p; ¼ MIC AMP + ¼ MIC antiseptic, poviargolum: outer membrane only, data not shown) was “did not cause significant changes in the dynamics of the membranolytic action of AMPs”. The “Effect on permeability of bacterial membranes for chromogenic markers, substance alone” value (E. coli ML-35p; ¼ and ½ MIC, nitrocefin (outer) and ONPG (inner membrane), 10 mM Na-P buffer pH 7.4, 100 mM NaCl, 37 °C) was “did not significantly increase the permeability of bacterial membranes”.
With Cocamidopropyl betaine the “MECF of cytotoxic action toward normal human dermal fibroblasts” value [1, 2] was 12.5 µg/mL and the “Interference with nitrocefin degradation by bacterial β-lactamase” value (E. coli ML-35p; [3]) was “block the degradation of nitrocephin by β-lactamase”.
In the case of `CC(C)C[C@H](NC(=O)[C@H](CCCNC(=N)N)NC(=O)CNC(=O)CNC(=O)[C@@H](N)CCCNC(=N)N)C(=O)N[C@H]1CSSC[C@@H](C(=O)N[C@H](C(=O)NCC(=O)N[C@@H](CCCNC(=N)N)C(N)=O)C(C)C)NC(=O)[C@H](C(C)C)NC(=O)[C@@H]2CSSC[C@H](NC(=O)[C@H](Cc3ccc(O)cc3)NC1=O)C(=O)N[C@@H](CCCNC(=N)N)C(=O)N[C@@H](CCCNC(=N)N)C(=O)N[C@@H](CCCNC(=N)N)C(=O)N[C@@H](Cc1ccccc1)C(=O)N2` [PG-1, protegrin 1], the “FECI, toxicity toward fibroblasts” value ([1]; B = cocamidopropyl betaine) is reported as 1.0, the “Toxicity of (¼ MEC A + ¼ MEC B) toward human dermal fibroblasts” value ([1]; B = cocamidopropyl betaine, experiment 1 of 3 (1st symbol)) is reported as “+” and the “Toxicity of (¼ MEC A + ¼ MEC B) toward human dermal fibroblasts” value ([1]; B = cocamidopropyl betaine, experiment 2 of 3 (2nd symbol)) is reported as “−”. For the same compound, the “Toxicity of (¼ MEC A + ¼ MEC B) toward human dermal fibroblasts” value ([1]; B = cocamidopropyl betaine, experiment 3 of 3 (3rd symbol)) was “−”, the “Toxicity of (¼ MEC A + ¼ MEC B) toward human dermal fibroblasts” value ([1]; B = cocamidopropyl betaine, overall result of 3 independent experiments (square brackets)) was “−” and the “FECI, toxicity toward fibroblasts” value ([1]; B = dioxydin) was over 1.0. For the same compound, the “FECI, toxicity toward fibroblasts” value ([1]; B = poviargolum) was 1.0, the “Toxicity of (¼ MEC A + ¼ MEC B) toward human dermal fibroblasts” value ([1]; B = poviargolum, experiment 1 of 3 (1st symbol)) was “+” and the “Toxicity of (¼ MEC A + ¼ MEC B) toward human dermal fibroblasts” value ([1]; B = poviargolum, experiment 2 of 3 (2nd symbol)) was “−”. For the same compound, the “Toxicity of (¼ MEC A + ¼ MEC B) toward human dermal fibroblasts” value ([1]; B = poviargolum, experiment 3 of 3 (3rd symbol)) was “−”, the “Toxicity of (¼ MEC A + ¼ MEC B) toward human dermal fibroblasts” value ([1]; B = poviargolum, overall result of 3 independent experiments (square brackets)) was “−” and the “FECI, toxicity toward fibroblasts” value ([1]; B = prontosan) was 1.0. For the same compound, the “Magnitude of toxic effect toward human dermal fibroblasts” value ([1]; at 20 μM) was “higher than 50%”.
In the case of `CC[C@H](C)[C@H](NC(=O)[C@H](CCCNC(=N)N)NC(=O)[C@@H](NC(=O)[C@@H]1CCCN1C(=O)[C@@H]1CCCN1C(=O)[C@H](CCCNC(=N)N)NC(=O)[C@H](CCCNC(=N)N)NC(=O)[C@H](Cc1ccccc1)NC(=O)[C@@H]1CCCN1C(=O)[C@H](CC(C)C)NC(=O)[C@H](CCCNC(=N)N)NC(=O)[C@H](Cc1ccccc1)NC(=O)[C@@H](N)CCCNC(=N)N)[C@@H](C)CC)C(=O)N[C@@H](Cc1c[nH]cn1)C(=O)N1CCC[C@H]1C(=O)N1CCC[C@H]1C(=O)N1CCC[C@H]1C(=O)N[C@@H](Cc1ccccc1)C(=O)N[C@@H](Cc1ccc(O)cc1)C(=O)N1CCC[C@H]1C(=O)N1CCC[C@H]1C(=O)N[C@@H](Cc1ccccc1)C(=O)N[C@@H](CCCNC(=N)N)C(=O)N[C@@H](CCCNC(=N)N)C(=O)N[C@@H](Cc1ccccc1)C(=O)N[C@@H](CC(C)C)C(=O)O` [ChBac3.4] (H-RFRLPFRRPPIRIHPPPFYPPFRRFL-OH; N-terminus assumed), the “MECF of cytotoxic action toward normal human dermal fibroblasts” value [1] is reported as 40 µM.
